Where a name gives a salt, the structure may show the parent alone.

For data set [1] the following is noted: cited from earlier work.
Data set [2] in a line: Stability of the crystalline form under aqueous conditions (conversion to neutral form, checked by PXRD). It is filed as physicochemical. The text has this: All powder x-ray diffraction patterns were obtained using the D/Max Rapid X-ray Diffractometer (D/Max Rapid, Contact Rigaku/MSC, 9009 New Trails Drive, The Woodlands, Tex., USA 77381-5209) equipped with a copper source (Cu/Kα1.5406 angstroms), manual x-y stage, and 0.3 mm collimator. The sample was loaded into a 0.3 mm boron rich glass capillary tube (e.g., Charles Supper Company, 15 Tech Circle, Natick, Mass. 01760-1024) by sectioning off one end of the tube and tapping the open, sectioned end into a bed of the powdered sample or into the sediment of a slurried precipitate. Note, precipitate can be amorphous or crystalline. The loaded capillary was mounted in a holder that was secured into the x-y stage. A diffractogram was acquired (e.g., Control software: RINT Rapid Control Software, Rigaku Rapid/XRD, version 1.0.0, © 1999 Rigaku Co.) under ambient conditions at a power setting of 46 kV at 40 mA in reflection mode, while oscillating about the omega-axis from 0-5 degrees at 1 degree/s and spinning about the phi-axis at 2 degrees/s. The exposure time was 15 minutes unless otherwise specified. […]

The conditions of data set [3]: commercially available form (ACCOLATE), neutral molecule; cited from earlier work.

`COc1cc(C(=O)NS(=O)(=O)c2ccccc2C)ccc1Cc1cn(C)c2ccc(NC(=O)OC3CCCC3)cc12` [Amorphous neutral zafirlukast]: the “conversion of form in the presence of water” value in data set [1] is “convert to a monohydrate form”.
On to `COc1cc(C(=O)NS(=O)(=O)c2ccccc2C)ccc1Cc1cn(C)c2ccc(NC(=O)OC3CCCC3)cc12` [potassium salt of zafirlukast], for which, in data set [2] (after exposure to neutral or acidic aqueous conditions), the “PXRD diffractogram after exposure to aqueous conditions” value is given as “remains unchanged”. In addition, the “conversion back to the neutral form under aqueous conditions” value in data set [2] (aqueous conditions, either neutral or acidic) is recorded as “does not convert back to the neutral form”.
As to `COc1cc(C(=O)NS(=O)(=O)c2ccccc2C)ccc1Cc1cn(C)c2ccc(NC(=O)OC3CCCC3)cc12` [zafirlukast, 4-(5-cyclopentyloxy-carbonylamino-1-methyl-indol-3-ylmethyl)-3-methoxy-N-o-tolylsulfonylbenzamide], in data set [3], the solubility in water result was “essentially insoluble in water”.

(Values after patent US20050113410A1, “Pharmaceutical salts of zafirlukast” (priority 2003, published 2005).)
